According to US5776957A, “Nornicotine enantiomers for use as a treatment for dopamine related conditions and disease states” (The University of Kentucky Research Foundation, priority 1996, dated 1998):
“Also recorded” adds a separate entry of the source.

Key:
[1] = cited from earlier work
[2] = system: [3H]DA-preloaded rat striatal slices (nicotinic receptors); settings: cited from earlier work
[3] = Locomotor activity assay, acute and repeated treatment, S(-) nicotine challenge, saline challenge; type: in vivo, rat; settings: for behavioral sensitization after repeated administration: 8 injections once every 48 hrs, nicotine 1 mg/kg, R(+) 0.3-10 mg/kg; for conditioned response to repeated administration (saline challenge): 48 hrs after S(-) nicotine challenge; for cross-sensitization to S(-) nicotine: repeated S(-) nornicotine
Description: (I mg/kg), norNIC (0.3-10 mg/kg) or R(+) norNIC (0.3-10 mg/kg) was administered peripherally (s.c., 8 injections once every 48 hrs) to groups of rats and locomotor activity was assessed for 50 min immediately after each injection.
In the present study, S(-) nicotine (1 mg/kg), R(+) nornicotine (1-10 mg/kg), S(-) nornicotine (1-10 mg/kg), or vehicle (saline) were administered s.c. to groups of rats (n=6) acutely or repeatedly (8 injections once every 48 hrs). Locomotor activity was measured during 50 min sessions immediately following drug or vehicle administration.
Male Sprague-Hawley rats (225-250 g) from Harlan Laboratories were housed two per cage with free access to food and water.
Activity was recorded automatically in a wooden test-chamber measuring 30×28×43 cm high. The chamber had white walls and a wire mesh floor over pine chip bedding. Two photobeams located 4.5 cm above the floor divided the chamber into four equal quadrants. Electromechanical equipment located in an adjacent room recorded photobeam interruptions automatically. A white noise generator provided an ambient 70 dB background noise in the test room in order to minimize extraneous sounds that might influence the animal's behavior in the test chamber. Rats were habituated to the chamber for 50 min on each of three consecutive days.
On the day immediately after the third habituation session, rats were randomly divided into groups (n=6/group) and were administered s.c. either S(-) nicotine (1 mg/kg), R(+) nornicotine (0.3, 1, 3 and 10 mg/kg), or vehicle (saline) to determine acute drug effects on locomotor activity. In a separate experiment, rats (n=6/group) were administered s.c. either S(-) nicotine (1 mg/kg), S(-) nornicotine (0.3, 1, 3 and 10 mg/kg), or vehicle (saline). To determine the effect of repeated drug administration on locomotor activity, drug or vehicle was administered respectively in the test-room once every 48 hrs for a total of 8 injections. After each injection, locomotor activity was recorded during a 50 min session (five 10-min blocks). On the ninth injection day (48 hrs following injection 8), each group of rats was administered a challenge dose (1 mg/kg) of S(-) nicotine in the test-room, and locomotor activity was determined immediately thereafter. On the tenth injection day, each group of rats was administered saline and locomotor activity recorded to determine potential conditioning effects of the repeated drug administration.
Post hoc analysis of pairwise comparisons was performed with Duncan's New Multiple Range test.

[4] = drug self-administration paradigm; settings: rats
[5] = NIC and metabolites in rat brain after s.c. injection of radiolabelled NIC; type: in vivo
Text: NIC metabolism studies involving HPLRC analysis invariably utilize NIC with a radiolabel (i.e., [^3 H], [^14 C] or [^11 C]) incorporated in the methyl group. However N-demethylated NIC metabolites (norNIC and norCOT) cannot be detected after injection of such radionuclides, since the label is lost in the formation of these metabolites. NIC and four NIC metabolites have recently been detected in rat brain 4 hr after s.c. injection of [2'-^14 C]NIC (FIG. 3, Table I). Three of these metabolites have been identified as COT, norNIC and norCOT. A fourth minor metabolite (Peak B) has not been completely identified but appears to be an N-demethylated metabolite, since it is not detected in the [^3 H-N-methyl]NIC studies.
COT, and therefore, is unlikely to originate from COT N-demethylation. 3-HydroxyCOT and its glucuronide conjugate were not detected as metabolites of either NIC or COT in brain, even though these are major biotransformation products in the periphery (Crooks, 1993).
It appears that NIC metabolites which accumulate with a time course that correlates with the development of behavioral sensitization to NIC have a role in eliciting sensitization to NIC. The inventors have detected NIC, COT, norNIC and norCOT in brain 4 hr following acute s.c. injection of (±)[2'-^14 C]NIC. S(-) [^3 H] -N-methyl]NIC is unsuitable for studying brain metabolism of NIC, since nor-metabolites (i.e., demethylated metabolites) cannot be detected due to [^3 H]-loss during metabolism (Crooks et al., 1995b, AP 7). Thus, commercially available (±)[2'-^14 C]NIC was used to determine NIC metabolites present in brain. This form of radiolabelled NIC provides a metabolically stable [^14 C]-label which allows measurement of all potential NIC metabolites.
A second "metabolite" (Peak A, FIG. 2) was also detected at each time point and most likely results from a combination of metabolic cleavage of the N-methyl group and dissociated-[^3 H], i e, Peak A represents an oxidized 1-carbon unit and indicates the extent of NIC N-demethylation. Note, in our subsequent studies with [2'-^14 C]NIC, Peak A was not observed, which is consistent with our interpretation of the results (Table 1).

[6] = acute S(-) nornicotine 1 and 3 mg/kg
[7] = repeated S(-) nornicotine 3 mg/kg

Structure (SMILES): CN1CCC[C@H]1c1cccnc1 [S(-) nicotine]
- cross-sensitization between nicotine and amphetamine [1]: has not been observed
- plateau concentration of concentration-response curve ([2]; Izenwasser et al. (1991), 10-min exposure): 0.1 µM
- EC50 ([2]; rat striatal slices, Sacaan et al. (1995), read-out: EC50 for NIC-evoked [3H]overflow): 3.7 µM
- behavioral sensitization after repeated administration ([3]; S(-) nornicotine 10 mg/kg): robust behavioral sensitization
- conditioned response to repeated administration (saline challenge) [3]: did not contribute to the observed behavioral sensitization
- cumulated locomotor activity after saline challenge ([3]; R(+) experiment, S(-) nicotine 1 mg/kg group): 485 ± 41 number of photobeam interruptions/50 min session
- cumulated locomotor activity after saline challenge ([3]; S(-) experiment, S(-) nicotine 1 mg/kg group): 429 ± 34 number of photobeam interruptions/50 min session
- locomotor activity time course ([3]; acute S(-) nicotine 1 mg/kg, 20-40 min): did not alter activity
- locomotor activity time course ([3]; acute S(-) nicotine 1 mg/kg, first 10 min): significantly decreased activity
- locomotor activity time course ([3]; acute S(-) nicotine 1 mg/kg, last 10 min): significantly increased locomotor activity
- cumulated locomotor activity vs saline-control ([3]; acute, S(-) nicotine 1 mg/kg): not different from the saline-control group; also recorded: did not alter
- cumulated locomotor activity after S(-) nicotine challenge ([3]; repeated S(-) nicotine group vs saline-control): significantly increased
- time course after S(-) nicotine challenge ([3]; repeated S(-) nicotine, first 20 min (R(+) experiment) vs saline-control): significantly increased
- time course after S(-) nicotine challenge ([3]; repeated S(-) nicotine, first 30 min (S(-) experiment)): significantly greater
- locomotor activity time course ([3]; repeated S(-) nicotine, majority of time course): significant increase in activity
- cumulated locomotor activity vs saline-control ([3]; repeated, S(-) nicotine 1 mg/kg, 8 injections): significantly increased locomotor activity
- self-administration / substitution for amphetamine [4]: responding was established and maintained
- level in CNS at 4 hrs post-NIC-injection ([5]; 4 hrs): only low levels were detected
- Tmax ([5]; in vivo, rat brain, read-out: time of maximum uptake in brain): 30 to 60 min

Structure (SMILES): c1cncc([C@@H]2CCCN2)c1 [S(-) nornicotine, S-(-) nornicotine]
- potency relative to nicotine ([1]; behavioral sensitization): less potent than nicotine
- antagonist sensitivity of effects ([2]; Teng et al., 1996): inhibited by mecamylamine and DHβE
- behavioral sensitization after repeated administration ([3]; S(-) nornicotine 10 mg/kg): produces behavioral sensitization; also recorded: behavioral sensitization following repeated administration of the high dose of S(-) nornicotine was observed
- behavioral sensitization after repeated administration ([3]; S(-) nornicotine 10 mg/kg, listed as S-(-)- norNIC): produces behavioral sensitization
- conditioned response to repeated administration (saline challenge) [3]: did not contribute to the observed behavioral sensitization
- cumulated locomotor activity after saline challenge ([3]; S(-) experiment, 0.3 mg/kg): 352 ± 17 number of photobeam interruptions/50 min session
- cumulated locomotor activity after saline challenge ([3]; S(-) experiment, 1.0 mg/kg): 333 ± 38 number of photobeam interruptions/50 min session
- cumulated locomotor activity after saline challenge ([3]; S(-) experiment, 3.0 mg/kg): 394 ± 50 number of photobeam interruptions/50 min session
- cumulated locomotor activity after saline challenge ([3]; S(-) experiment, 10 mg/kg): 459 ± 26 number of photobeam interruptions/50 min session
- locomotor activity after the seventh injection ([3]; S(-) nornicotine 10 mg/kg, repeated): 364±32 photobeam interruptions
- cumulated locomotor activity vs saline-control ([3]; acute S(-) nornicotine 0.3 mg/kg): significantly increased
- locomotor activity time course ([3]; acute S(-) nornicotine 0.3 mg/kg, first 20 min): significant increase in activity
- cumulated locomotor activity vs saline-control ([3]; acute S(-) nornicotine 10 mg/kg): significant decrease in activity
- locomotor activity time course ([3]; acute S(-) nornicotine 10 mg/kg, first 10 min): decreased during the first 10 min of the session
- cumulated locomotor activity vs saline-control [3, 6]: not different from the saline-control group
- locomotor activity time course [3, 6]: not different from the saline-control group
- cumulated locomotor activity vs saline-control ([3]; acute, 0.3 and 10 mg/kg, R(+) experiment): significant decrease in locomotor activity
- cumulated locomotor activity vs saline-control ([3]; acute, 1 and 3 mg/kg, R(+) experiment): not different from control
- locomotor activity, first 10 min ([3]; acute, S(-) nornicotine 3 mg/kg): 121±14 photobeam interruptions
- cross-sensitization to S(-) nicotine [3]: cross-sensitization to S(-) nicotine was observed
- tolerance to acute stimulatory effect ([3]; repeated S(-) nornicotine 0.3 mg/kg): tolerance to the acute stimulatory effect
- locomotor activity, first 10 min [3, 7]: 101±12 photobeam interruptions
- locomotor activity, first 10 min after S(-) nicotine challenge [3, 7]: 134±21 photobeam interruptions
- tolerance to depressant effect [3, 7]: tolerance did not develop
- tolerance to depressant effect ([3]; repeated S(-) nornicotine 10 mg/kg): also observed; also recorded: tolerance developed
- time course after S(-) nicotine challenge ([3]; repeated S(-) nornicotine 10 mg/kg, 10-min and 30-min time points): stimulated significantly
- locomotor activity time course ([3]; repeated S(-) nornicotine 10 mg/kg, 20-40 min): significantly greater than that of the saline-control group
- locomotor activity vs saline-control ([3]; repeated S(-) nornicotine 10 mg/kg, last administration): stimulated significantly above that of the saline-control group
- locomotor activity time course ([3]; repeated S(-) nornicotine 0.3-3 mg/kg): not different from the saline-control group
- time course after S(-) nicotine challenge ([3]; repeated S(-) nornicotine 0.3 and 1 mg/kg): not different from that of the saline-control group
- cumulated locomotor activity after S(-) nicotine challenge ([3]; repeated S(-) nornicotine 0.3 and 1.0 mg/kg): no effect
- locomotor activity vs saline-control ([3]; repeated S(-) nornicotine 1 and 3 mg/kg): not different from that of the saline-control group
- cumulated locomotor activity after S(-) nicotine challenge ([3]; repeated S(-) nornicotine 3 and 10 mg/kg): significantly stimulated locomotor activity
- cross-sensitization to S(-) nicotine ([3]; listed as norNIC): cross-sensitization was observed
- self-administration / substitution for amphetamine ([4]; listed as S-(-)-nornicotine): self-administered; also recorded: substitutes for amphetamine self administration
- self-administration / substitution for amphetamine ([4]; listed as norNIC): reinforcing
- presence as metabolite in brain ([5]; rat brain, after s.c. radiolabelled NIC): present in significant amounts in brain
